Experimental data as given in the NIST ThermoML archive (doi:10.1016/j.jct.2005.07.019).
± gives the expanded uncertainty stated by the source.

Test: mn = molality of the nth substance listed, in mol/kg
Conditions: 350 kPa, Liquid, Extra sensitive DSC

N[C@@H](CO)C(=O)O [L-serine] + O
apparent molar heat capacity [J/K/mol]
Conditions | m1 = 0.015 | m1 = 0.0302 | m1 = 0.05 | m1 = 0.08 | m1 = 0.1249 | m1 = 0.2501 | m1 = 0.3717 | m1 = 0.7002 | m1 = 1.001
278.15 K | 58.9 ± 52 | 59.2 ± 26 | 58.9 ± 16 | 60.7 ± 9.8 | 62.4 ± 6.4 | 67.93 ± 3.5 | 72.64 ± 2.7 | 84.65 ± 1.9 | 94.04 ± 1.7
283.15 K | 78.9 ± 52 | 79.3 ± 26 | 79.2 ± 16 | 80.6 ± 9.9 | 82.1 ± 6.4 | 86.36 ± 3.6 | 90.3 ± 2.7 | 99.99 ± 2 | 108.37 ± 1.8
288.15 K | 94.8 ± 52 | 95.4 ± 26 | 95.2 ± 16 | 96.5 ± 9.9 | 97.7 ± 6.4 | 101.28 ± 3.6 | 104.58 ± 2.7 | 112.69 ± 2 | 120.13 ± 1.8
293.15 K | 108 ± 52 | 108.7 ± 26 | 108.4 ± 16 | 109.5 ± 9.9 | 110.5 ± 6.5 | 113.56 ± 3.6 | 116.4 ± 2.8 | 123.33 ± 2 | 129.97 ± 1.8
298.15 K | 118.7 ± 52 | 119.4 ± 26 | 119.2 ± 16 | 120.1 ± 10 | 120.9 ± 6.5 | 123.63 ± 3.6 | 126.11 ± 2.8 | 132.2 ± 2 | 138.25 ± 1.8
303.15 K | 127.9 ± 52 | 128.6 ± 26 | 128.4 ± 16 | 129.2 ± 10 | 129.9 ± 6.5 | 132.24 ± 3.7 | 134.43 ± 2.8 | 139.82 ± 2 | 145.45 ± 1.8
308.15 K | 135.6 ± 52 | 136.4 ± 26 | 136.2 ± 16 | 136.9 ± 10 | 137.5 ± 6.5 | 139.63 ± 3.7 | 141.58 ± 2.8 | 146.36 ± 2 | 151.62 ± 1.8
313.15 K | 142.6 ± 52 | 143.1 ± 26 | 142.9 ± 16 | 143.5 ± 10 | 144.1 ± 6.6 | 145.98 ± 3.7 | 147.77 ± 2.8 | 152.15 ± 2 | 157.1 ± 1.8
318.15 K | 148.7 ± 52 | 148.9 ± 26 | 148.6 ± 16 | 149.2 ± 10 | 149.7 ± 6.6 | 151.4 ± 3.7 | 153.04 ± 2.8 | 157.06 ± 2 | 161.73 ± 1.8
323.15 K | 153.9 ± 52 | 154.1 ± 26 | 153.8 ± 16 | 154.2 ± 10 | 154.6 ± 6.6 | 156.2 ± 3.7 | 157.74 ± 2.9 | 161.47 ± 2 | 165.95 ± 1.8
328.15 K | 158.6 ± 52 | 158.6 ± 26 | 158.3 ± 16 | 158.7 ± 10 | 159 ± 6.7 | 160.4 ± 3.9 | 161.86 ± 2.9 | 165.32 ± 2.1 | 169.63 ± 1.8
333.15 K | 163.4 ± 52 | 163.1 ± 26 | 162.2 ± 16 | 162.6 ± 10 | 162.9 ± 6.7 | 164.2 ± 3.9 | 165.59 ± 2.9 | 168.83 ± 2.1 | 173.01 ± 1.8
338.15 K | 167.3 ± 52 | 166.8 ± 26 | 165.8 ± 16 | 166.2 ± 10 | 166.4 ± 6.8 | 167.6 ± 3.9 | 168.91 ± 3 | 172 ± 2.1 | 176.07 ± 1.9
343.15 K | 170.4 ± 52 | 169.9 ± 26 | 168.8 ± 16 | 169 ± 10 | 169.3 ± 6.8 | 170.5 ± 3.9 | 171.75 ± 3 | 174.71 ± 2.1 | 178.65 ± 1.9
348.15 K | 173.7 ± 52 | 172.4 ± 26 | 171.4 ± 16 | 171.6 ± 10 | 171.9 ± 6.9 | 173.1 ± 4 | 174.28 ± 3 | 177.14 ± 2.2 | 181.02 ± 1.9
353.15 K | 176 ± 52 | 174.9 ± 26 | 173.8 ± 16 | 174 ± 10 | 174.3 ± 6.9 | 175.4 ± 4 | 176.6 ± 3 | 179.33 ± 2.2 | 183.15 ± 1.9
358.15 K | 178 ± 52 | 176.9 ± 26 | 176 ± 16 | 176 ± 10 | 176.4 ± 7 | 177.4 ± 4 | 178.6 ± 3 | 181.28 ± 2.2 | 185.03 ± 2
363.15 K | 179 ± 52 | 178.4 ± 27 | 177.6 ± 16 | 177.7 ± 10 | 178.1 ± 7.1 | 179.1 ± 4.1 | 180.3 ± 3.2 | 182.94 ± 2.3 | 186.63 ± 2
368.15 K | 181 ± 52 | 179.7 ± 27 | 178.9 ± 16 | 179 ± 10 | 179.6 ± 7.1 | 180.6 ± 4.1 | 181.8 ± 3.2 | 184.38 ± 2.3 | 188 ± 2
373.15 K | 181 ± 53 | 180.9 ± 27 | 180.2 ± 16 | 180.1 ± 11 | 180.7 ± 7.1 | 181.8 ± 4.1 | 183 ± 3.2 | 185.63 ± 2.3 | 189.22 ± 2
378.15 K | 181 ± 53 | 181.7 ± 27 | 181 ± 16 | 180.7 ± 11 | 181.7 ± 7.3 | 182.9 ± 4.1 | 183.9 ± 3.2 | 186.55 ± 2.3 | 190.12 ± 2
383.15 K | 182 ± 54 | 182.2 ± 27 | 181.8 ± 17 | 181.3 ± 11 | 182.4 ± 7.3 | 183.8 ± 4.1 | 184.8 ± 3.2 | 187.46 ± 2.3 | 190.98 ± 2
388.15 K | 183 ± 54 | 182.6 ± 27 | 182.7 ± 17 | 181.4 ± 11 | 183 ± 7.4 | 184.4 ± 4.3 | 185.4 ± 3.3 | 188.07 ± 2.4 | 191.6 ± 2.1
393.15 K | 183 ± 55 | 182.6 ± 28 | 183.3 ± 17 | 181.2 ± 11 | 183.4 ± 7.4 | 184.8 ± 4.3 | 185.7 ± 3.3 | 188.6 ± 2.5 | 192.04 ± 2.1

NC(CO)C(=O)O (stereo not given) [(.+-.)-serine] + O
apparent molar heat capacity [J/K/mol]
Conditions | m1 = 0.015 | m1 = 0.0308 | m1 = 0.0509 | m1 = 0.0807 | m1 = 0.1251 | m1 = 0.2505
278.15 K | 50 ± 57 | 53.4 ± 28 | 56.4 ± 17 | 56.6 ± 11 | 57.8 ± 7.3 | 68 ± 3.8
283.15 K | 71 ± 57 | 74.1 ± 28 | 76.7 ± 17 | 76.7 ± 11 | 77.7 ± 7.2 | 86.3 ± 3.9
288.15 K | 87 ± 57 | 90.3 ± 28 | 92.6 ± 17 | 92.6 ± 11 | 93.2 ± 7.1 | 101 ± 3.9
293.15 K | 101 ± 56 | 103.7 ± 28 | 105.7 ± 17 | 105.8 ± 11 | 106.1 ± 7.1 | 113.1 ± 3.8
298.15 K | 112 ± 56 | 114.5 ± 28 | 116.5 ± 17 | 116.5 ± 11 | 116.7 ± 7 | 123 ± 3.8
303.15 K | 121 ± 56 | 123.9 ± 27 | 125.8 ± 17 | 125.7 ± 11 | 125.7 ± 7 | 131.4 ± 3.8
308.15 K | 130 ± 55 | 132.2 ± 27 | 133.9 ± 17 | 133.6 ± 11 | 133.4 ± 7.1 | 138.6 ± 3.7
313.15 K | 137 ± 55 | 139.3 ± 27 | 140.7 ± 17 | 140.4 ± 11 | 140.2 ± 7 | 144.9 ± 3.7
318.15 K | 143 ± 55 | 145.2 ± 27 | 146.5 ± 16 | 146.2 ± 10 | 145.8 ± 7 | 150.2 ± 3.7
323.15 K | 149 ± 55 | 150.3 ± 27 | 151.6 ± 16 | 151.3 ± 10 | 150.9 ± 6.9 | 154.9 ± 3.7
328.15 K | 154 ± 55 | 155 ± 27 | 156.2 ± 16 | 155.8 ± 10 | 155.3 ± 6.9 | 158.9 ± 3.7
333.15 K | 158 ± 54 | 159.4 ± 27 | 160.4 ± 16 | 159.9 ± 10 | 159.3 ± 6.9 | 162.6 ± 3.8
338.15 K | 162 ± 54 | 163.3 ± 27 | 164.2 ± 16 | 163.6 ± 10 | 162.9 ± 6.9 | 165.92 ± 3.7
343.15 K | 166 ± 54 | 166.3 ± 26 | 167.2 ± 16 | 166.6 ± 10 | 165.9 ± 6.8 | 168.74 ± 3.7
348.15 K | 168 ± 54 | 169 ± 26 | 170.1 ± 16 | 169.5 ± 10 | 168.8 ± 6.8 | 171.27 ± 3.7
353.15 K | 170 ± 53 | 171.6 ± 26 | 172.5 ± 16 | 172.1 ± 10 | 171.2 ± 6.8 | 173.56 ± 3.7
358.15 K | 172 ± 53 | 173.7 ± 26 | 174.6 ± 16 | 174 ± 10 | 173.1 ± 6.7 | 175.45 ± 3.7
363.15 K | 174 ± 53 | 175.7 ± 26 | 176.6 ± 16 | 176.2 ± 10 | 175.3 ± 6.7 | 177.16 ± 3.7
368.15 K | 175 ± 53 | 177.9 ± 26 | 178.6 ± 16 | 178.4 ± 10 | 177 ± 6.7 | 178.66 ± 3.7
373.15 K | 177 ± 53 | 179.9 ± 26 | 180.5 ± 16 | 179.7 ± 10 | 178.2 ± 6.7 | 179.8 ± 3.7
378.15 K | 177 ± 52 | 180.9 ± 26 | 181.3 ± 16 | 180.7 ± 10 | 179.3 ± 6.7 | 180.67 ± 3.6
383.15 K | 177 ± 52 | 181.7 ± 26 | 182.2 ± 16 | 181.5 ± 10 | 180.2 ± 6.7 | 181.46 ± 3.6
388.15 K | 175 ± 52 | 182.6 ± 26 | 183 ± 16 | 182.2 ± 10 | 180.9 ± 6.7 | 181.91 ± 3.6
393.15 K | 173 ± 52 | 183.3 ± 26 | 183.3 ± 16 | 182.8 ± 10 | 181.6 ± 6.7 | 182.2 ± 3.6
